Marks after values point to notes of the source that are not given here.
Key:
ZIKV (Zika virus) [1] = assay: End-point titration technique (EPTT), cytopathic effect inhibition, ZIKV in Vero E6; type: cell-based; conditions: Vero E6, 10TCID50, EPTT
ZIKV (Zika virus) [2] = assay: Plaque reduction assay (PFU), ZIKV in Vero E6; type: cell-based; conditions: ZIKV, Vero E6, PFU/well 150 ± 25
[3] = tested on: DENV-2 (Dengue virus type 2); assay: Plaque reduction assay (PFU), DENV-2 in BHK21; type: cell-based; conditions: DENV-2, BHK21, PFU/well 150 ± 25
Vero-E6 cells = assay: Cytotoxicity CC100 in Vero-E6 cells (72 h); conditions: for CC100 (100% cytotoxic concentration): Vero-E6 cells, 72h; for Cytostatic compounds (asterisk at the label): Table 1 footnote mark
BHK-21 cells = assay: Cytotoxicity CC100 in BHK-21 cells (6 days)
[4] = tested on: CHIKV (Chikungunya virus); assay: End-point titration technique (EPTT), viral titer reduction factor, CHIKV in Vero E6; type: cell-based; conditions: Vero E6, 10TCID50, EPTT
[5] = tested on: DENV-2 (Dengue virus type 2); assay: End-point titration technique (EPTT), cytopathic effect inhibition, DENV-2 in Vero E6; type: cell-based; conditions: DENV-2, Vero E6, 10TCID50, EPTT
HHV-1, 29R strain = type: cell-based, human Alpha herpesvirus type 1; conditions: Vero E6, 10TCID50, EPTT

Compound	% inhibition (PFU) (ZIKV (Zika virus) [2]) [%]	CC100 (100% cytotoxic concentration) (Vero-E6 cells) [µg/mL]	CC100 (100% cytotoxic concentration) (BHK-21 cells) [µg/mL]	Rf (reduction factor of the viral titer) (HHV-1, 29R strain)	other results
CC(C)c1cc2c(cc1O)[C@@]1(C)CCC[C@](C)(C(=O)O)[C@@H]1CC2 [Compound 19b, lambertic acid]	27 ± 17	>50	>50		inhibition ECytop (inhibitory cytopathic effect compared to the infection control) (ZIKV (Zika virus) [1]): +; % inhibition (PFU) [3]: 35 ± 10%
CC(C)c1cc2c(cc1O)[C@@]1(C)CCC[C@@](C)(CO)[C@@H]1CC2 [Compound 20a, 18-hydroxyferruginol]	19 ± 11	50	50		% inhibition (PFU) [3]: 25 ± 10%; Rf (reduction factor of the viral titer) [4]: 10^2; Cytostatic effect (Vero-E6 cells): cytostatic; Cytostatic compounds (asterisk at the label) (Vero-E6 cells): 20a*
CC(C)c1cc2c(cc1O)[C@@]1(C)CCC[C@](C)(CO)[C@@H]1CC2=O [Compound 21b]		>25	25		
CC(C)c1ccc2c(c1)CC[C@H]1C(C)(C(=O)O)CCC[C@]21C (stereo partly shown) [Compound 13]	19 ± 12	50	50		inhibition ECytop (inhibitory cytopathic effect compared to the infection control) [5]: +; Cytostatic compounds (asterisk at the label) (Vero-E6 cells): 13*
COC(=O)[C@]1(C)CCC[C@]2(C)c3cc(C(C)=O)c(C(C)C)cc3CC[C@@H]12 [Compound 15a]		>50	25		
COC(=O)[C@]1(C)CCC[C@]2(C)c3cc(OC(C)=O)c(C(C)C)cc3C(=O)C[C@@H]12 [Compound 17a]		25	25		
COC(=O)[C@@]1(C)CCC[C@]2(C)c3cc(OC(C)=O)c(C(C)C)cc3C(=O)C[C@@H]12 [Compound 17b]		50	25	not active	inhibition ECytop (inhibitory cytopathic effect compared to the infection control) (ZIKV (Zika virus) [1]): +
COC(=O)[C@]1(C)CCC[C@]2(C)c3cc(O)c(C(C)C)cc3CC[C@@H]12 [Compound 18a]		50	25		
COC(=O)[C@]1(C)CCC[C@]2(C)c3cc(O)c(C(C)C)cc3C(=O)C[C@@H]12 [Compound 22a]		50	25		
CC(C)c1ccc2c(c1O)CC[C@H]1[C@](C)(C(=O)O)CCC[C@]21C [Compound 25]	20 ± 09	>25	>25	not active	
dextran sulfate [DS, reference compound]		>50			Nontoxic concentration that showed higher viral reduction factor (HHV-1, 29R strain): 5 µg/mL
CC(C)c1cc2c(cc1O)[C@@]1(C)CCCC(C)(C)[C@@H]1CC2 [Compound 5, (+)-ferruginol]	38 ± 15	>50	>50	not active	% inhibition (PFU) [3]: 28 ± 10%; Rf (reduction factor of the viral titer) [4]: 10^2
CC(C)c1cc2c(cc1O)[C@@]1(C)CCC[C@](C)(C(=O)O)[C@@H]1CC2=O [Compound 23b]		25	12.5	not active	
CC(C)c1ccc2c(c1)CC[C@H]1C(C)(CO)CCC[C@]21C (stereo partly shown) [Compound 14]	37 ± 15	>50	>50	not active	% inhibition (PFU) [3]: 30 ± 10%; Rf (reduction factor of the viral titer) [4]: 10^2

From article PMC9425435, “Antiviral Profiling of C-18- or C-19-Functionalized Semisynthetic Abietane Diterpenoids” (Journal of Natural Products, 2022)
